Common to all, as to assay type: cell-based, Macaca mulatta (rhesus monkey)
In assay [1] the target is T1, GR/NURR1 chimera (rat GR DBD fused to rhNURR1 LBD) (UniProt P06536+P43354).
T1 construct: expressed in transfected cells; host or cells: CHO cells, transient transfection of the pSG5 plasmid
Description: GR/NURR1 chimera transactivation of the MMTV-LUC reporter in transfected CHO cells. Conditions: FIG. 6; for NURR1 agonist activity: CHO cells co-transfected with GR/NURR1 chimera and reporter gene expression cassette; for luciferase expression from the MMTV-LUC reporter plasmid: CHO cells, compared to compound F and TOFA. An excerpt: A nucleic acid encoding a chimeric nuclear receptor comprising the rat glucocorticoid receptor (GR) DBD fused to the rhNURR1 LBD was constructed and the nucleic acid inserted downstream of the SV40 promoter in plasmid pSG5. The rat GR DBD consists of about amino acid 1 to about amino acid 505 and the rhNURR1 LBD consists of the amino acid sequence beginning from about amino acid 329 to about amino acid 598 (See FIG. 2). A nucleic acid encoding the rat GR DBD, which consisted of nucleotides 1 to 1583 (and which included the proximal 5′ untranslated sequences), was ligated to the nucleic encoding the rhNURR1 (nucleotides 329 to 1794). At the junction in the fusion protein between amino acid 505 of the rat GR DBD and amino acid 329 of the rhNURR1 LDB there are three extra amino acids, Alanine, Arginine, and Glutamic acid, which are encoded by the oligonucleotide 5′-GCTCGAGAA-3′ (SEQ ID NO:11) which includes an XhoI restriction enyme site.
The chimeric nuclear receptor was constructed by ligating the rat GRDBD encoding nucleotide fragment (nucleotides 1 to 1583) to the rhNURR1 LBD encoding nucleotide fragment (nucleotides 329 to 1794) and then inserting the ligated GRDBD/rhNURR1 LBD nucleotide fragments into the pSG5 plasmid expression vector between the EcoRI and BamHI sites.
A reporter gene expression cassette comprising the MMTV(2xGRE) promoter was constructed as described in Schmidt et al., Mol. Endocrinol. 6(10):1634-41 (1992).
A routine transient transfection assay for identifying agonists of rhNURR1 activity is described. While the transfection uses the FuGENE6 method of Roche Applied Science, Indianapolis, Ind., other transfection methods can be used.
In general, the method consists of plating about 0.8 to 1×10^4 transfected COS-1 or CHO cells per well of 96-well tissue culture plates which are UV and visible light transparent. The media that the cells are plated in is exponential growth medium which consists of phenol red-free DMEM containing 10% fetal bovine serum and 1× penicillin/streptomycin. Incubation conditions are 37° C. and 5% CO2. The transfection is done in batch mode.
For a transfection, the cells are trypsinized and resuspended to about 8×10^4 cells/mL in fresh medium. FuGENE6 is mixed with serum-free medium (for example, OPTIMEM, Invitrogen, Carlsbad, Calif.) at a ratio of 2 to 3. About 0.625 ng of DNA encoding the chimeric receptor of Example 2 and 0.625 ng DNA comprising the MMTV promoter operably linked to the luciferase gene (MMTV-LUC) are added to the FuGENE6 in serum-free medium and the mixture incubated at room temperature for about 20 minutes. The mixture is then added to one mL of the cell suspension and 100 μL aliquots plated to the wells of a 96-well tissue culture plate. Thus, a total ten wells contain cells, each containing about 8,000 cells. About 16 to 24 hours after transfection, for each well, about 1 uL of an analyte in a vehicle such as DMSO is added to the well. At least one well is reserved as a control and receives the vehicle alone. After 24 hours exposure to the analytes, the cells are assayed for luciferase activity. The cells are lysed by a Promega cell culture lysis buffer for approximately 30 min and then the luciferase activity in the extracts is assayed in the 96-well format liminometer (MICROBETA JET 1450, Perkin Elmer, Boston, Mass.). Results are calculated as fold induction of compound treated cells over control treated cells.
The CHO cells were transfected as in Example 3. […]
(In general: Reporter assays use an easily measured gene product as a stand-in for the process of interest.)

In assay [2] the target is T2, GR/NURR1 chimera receptor (NURR1 LBD) (UniProt P06536+P43354).
T2 construct: expressed in transfected cells
T2 sequence (P06536+P43354 fused, change not shown): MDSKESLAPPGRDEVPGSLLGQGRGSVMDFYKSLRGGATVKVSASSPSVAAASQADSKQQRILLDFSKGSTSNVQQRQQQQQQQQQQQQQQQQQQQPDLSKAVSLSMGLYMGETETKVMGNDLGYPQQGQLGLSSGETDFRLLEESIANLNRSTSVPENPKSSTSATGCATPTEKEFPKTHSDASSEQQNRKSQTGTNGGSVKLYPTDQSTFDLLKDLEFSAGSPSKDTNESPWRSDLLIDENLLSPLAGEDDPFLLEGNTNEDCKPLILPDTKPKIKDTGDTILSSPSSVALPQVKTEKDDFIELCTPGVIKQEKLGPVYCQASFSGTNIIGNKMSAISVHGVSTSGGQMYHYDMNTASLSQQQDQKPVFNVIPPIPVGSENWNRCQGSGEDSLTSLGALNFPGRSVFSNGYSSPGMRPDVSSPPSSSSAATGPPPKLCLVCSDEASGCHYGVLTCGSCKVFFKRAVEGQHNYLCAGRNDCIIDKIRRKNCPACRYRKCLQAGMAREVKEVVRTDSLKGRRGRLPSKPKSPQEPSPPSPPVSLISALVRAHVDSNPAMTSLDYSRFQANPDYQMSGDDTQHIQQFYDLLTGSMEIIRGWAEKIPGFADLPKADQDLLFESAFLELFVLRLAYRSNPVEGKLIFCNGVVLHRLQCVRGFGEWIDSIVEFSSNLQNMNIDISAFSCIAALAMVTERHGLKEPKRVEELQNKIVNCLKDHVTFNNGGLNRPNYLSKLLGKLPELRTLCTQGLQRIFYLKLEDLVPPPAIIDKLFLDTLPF
Nature of the assay: Relative transactivation of GR/NURR1 chimera receptor versus GR/LXRβ chimeric receptor, MMTV-luciferase reporter. Conditions: test analytes at 0, 1, 10, and 30 μM in DMSO; 48 hours post-transfection; FIG. 8. How it is done: Relative transactivation of GR/NURR1 chimera receptor in response to a panel of test analytes was determined.
An MMTV-luciferase reporter gene expression cassette was cotransfected with a gene expression cassette comprising DNA encoding either the chimeric receptor GR/NURR1 or a chimeric receptor comprising GR/LXRβ under transfection conditions similar to those in Example 3.
Expression vector GR/LXRβ was prepared in a similar manner to the GR/PPARα chimeric receptor in Example 5. […]
The next day, the transfected cells were washed and then refed with the appropriate medium containing 5% activated charcoal-stripped serum. […] The results are shown in FIG. 8 and are expressed as a relative activity in which the activity at each concentration that was obtained with cells transfected with the GR/NURR1 was divided by the corresponding activity that was obtained from cells cotransfected with the GR/LXRβ. […]

Assay [3] has as its target T2, GR/NURR1 chimera receptor (NURR1 LBD). Description: Relative transactivation of GR/NURR1 chimera receptor versus GR/PPARα chimeric receptor, MMTV-luciferase reporter. Particulars: test analytes at 0, 1, 10, and 30 μM in DMSO; FIG. 7. How it is done:
The relative transactivation of GR/NURR1 chimera receptor in response to a panel of test analytes was determined.
To further verify the selective NURR1 LBD-compound interactions, the same compounds were added to cells that had been co-transfected with the MMTV-luciferase reporter gene expression cassette and a gene expression cassette comprising DNA encoding either the chimeric receptor GR/NURR1 or a chimeric GR/PPARα receptor under conditions similar to those in Example 5.
Expression vector 3GR/PPARα contained the chimeric GR/PPARα receptor in which DNA encoding the DNA binding domain of GR was fused to the ligand binding domain of mouse PPARα was inserted into plasmid pSG5 (See Boie et al., J. Biol. Chem. 268: 5530-[…] (1993)).
Then, aliquots of the transfected cells were treated with test analytes at 0, 1, 10, and 30 μM concentrations in DMSO. The test analytes included Bicalutamide, Lovastatin, ZOCOR, and various SARM compounds. The results are shown in FIG. 7 and are expressed as a relative activity in which the activity at each concentration that was obtained with the extracts from the cells cotransfected with GR/NURR1 was divided by the corresponding activity that was obtained from extracts from the cells cotransfected with GR/PPARα. Other chimeric receptors other than GR/PPARα can be used. […]

T1 sequence (P06536+P43354 fused, change not shown): as above

`CC[C@H](C)C(=O)O[C@H]1C[C@@H](C)C=C2C=C[C@H](C)[C@H](CC[C@@H]3C[C@@H](O)CC(=O)O3)[C@H]21` [Lovastatin]: in assay [1], the NURR1 agonist activity result is “NURR1 agonists” and the “luciferase expression from the MMTV-LUC reporter plasmid” value is “increase in luciferase expression”. Besides, the “relative activity (GR/NURR1 activity divided by GR/LXRβ activity)” value in assay [2] is reported as “increase in activity”. In addition, the “relative activity (GR/NURR1 activity divided by GR/PPARα activity)” value in assay [3] was “increase in activity”.
For the compound `CCCCCCCCCCCCCCOc1ccc(C(=O)O)o1` [TOFA, 5-(tetradecyloxy)-2-furoic acid], in assay [1], the NURR1 agonist activity entry is “NURR1 agonists”.
Take `CCC(C)(C)C(=O)O[C@H]1C[C@@H](C)C=C2C=C[C@H](C)[C@H](CC[C@@H]3C[C@@H](O)CC(=O)O3)[C@H]21` [ZOCOR]: in assay [1], the NURR1 agonist activity entry is “NURR1 agonists” and the “luciferase expression from the MMTV-LUC reporter plasmid” value is on record as “increase in luciferase expression”. Further, the “relative activity (GR/NURR1 activity divided by GR/LXRβ activity)” value in assay [2] is recorded as “increase in activity”. The “relative activity (GR/NURR1 activity divided by GR/PPARα activity)” value in assay [3] is given as “increase in activity”.
